Laboratory results from patent US20080164212A1, “Method for Determining and Controlling the Formation of Deposits In a Water System” (ASHLAND LICENSING AND INTELLECTUAL PROPERTY LLC., priority 2005, published 2008).

System: total germ count (aerobic bacteria) in wire water of a newsprint paper machine
Assay: Total germ count by plating on agar, wire water in a flow cell system dosed daily with biocide
Type: cell-based
Conditions: 5 days in a flow cell, 48° C.
Description: Furthermore, conventional platings on agar (Plate Count Agar from Merck, Darmstadt, Germany) were also carried out to obtain an indication of the total germ counts.
The aim was to determine the correlation between the results of a conventional biocide screening and the real formation of slime deposits. The investigations were carried on the wire water of a newsprint paper machine using 100% TMP. With a biocide screening, it was possible to determine the optimum biocide concentration for the achievement of a germ count reduction by 10^2 within 30 minutes. In order to follow slime formation at this biocide concentration, a flow cell system with suspended coupons was employed.
The wire water, which was also used for the biocide screening, was poured into the storage bottles of this system and enriched with a number of clots of slime from the wire water channel. The investigation was carried out at system temperature (in this case 48° C.). During the test period of 5 days, biocide was dosed daily. After exposure, the coupons were immediately selectively dyed in order to distinguish between live and dead organisms and then analysed with CLSM. Samples were plated on an agar medium (aerobically) at the same time.

Row | SMILES | Total germ count (peracetic acid 60 ppm product) [cfu/ml] | Total germ count (DBNPA 40 ppm product) [cfa/ml]
1 | CC(=O)OO [peracetic acid] | < 1000 | –
2 | N#CC(Br)(Br)C(N)=O [DBNPA, dibromonitrile propionamide] | – | < 1000
